The values that follow come from patent publication US6313110A, “Substituted 2H-1,3-diazapin-2-one useful as an HIV protease inhibitor” (priority 2000, dated 2001).

Read-outs that look alike come from different tables or passages of the source.

The test system of the assay is HIV-1 (RF) in MT-2 cells. As to the kind of experiment: HIV RNA assay: antiviral potency in HIV-1 (RF) infected MT-2 cells (reduction of HIV RNA level). Format: cell-based. As for the experimental part: Plasmid pDAB 72 containing both gag and pol sequences of BH10 (bp 113-1816) cloned into PTZ 19R was prepared according to Erickson-Viitanen et al. AIDS Research and Human Retroviruses 1989, 5, 577. The plasmid was linearized with Bam HI prior to the generation of in vitro RNA transcripts using the Riboprobe Gemini system II kit (Promega) with T7 RNA polymerase. Synthesized RNA was purified by treatment with RNase free DNAse (Promega), phenol-chloroform extraction, and ethanol precipitation. RNA transcripts were dissolved in water, and stored at -70° C. The concentration of RNA was determined from the A260.
Biotinylated capture probes were purified by HPLC after synthesis on an Applied Biosystems (Foster City, Calif.) DNA synthesizer by addition of biotin to the 5' terminal end of the oligonucleotide, using the biotin-phosphoramidite reagent of Cocuzza, Tet. Lett. 1989, 30, 6287. […]
MT-2 and MT-4 cells were maintained in RPMI 1640 supplemented with 5% fetal calf serum (FCS) for MT-2 cells or 10% FCS for MT-4 cells, 2 mM L-glutamine and 50 μg/mL gentamycin, all from Gibco. […] Infectious titers of HIV-1(RF) stocks were 1-3×10^7 PFU (plaque forming units)/mL as measured by plaque assay on MT-2 cells (see below). […]

For the compound `Nc1ccn([C@H]2CC[C@@H](CO)O2)c(=O)n1` [ddC, dideoxycytidine], the IC90 (Human immunodeficiency virus 1, MT2, ddC reference, dilutions of virus selected to give this IC90, read-out: IC90 (concentration of compound required to reduce the HIV RNA level by 90%)) worked out at 0.2 µg/mL.

Consider `Nc1cccc(CN2C(=O)N(Cc3ccc4[nH]ncc4c3)[C@H](Cc3ccccc3)[C@H](O)[C@@H](O)[C@H]2Cc2ccccc2)c1` [Example 1, (4R,5S,6S,7R)-hexahydro-1-[(indazol-5-yl)methyl]-5,6-dihydroxy-4,7-bis[phenylmethyl]-3-(3-aminophenyl)methyl-2H-1,3-diazapin-2-one], for which the IC90 (Human immunodeficiency virus 1, MT2, 72 h, 3 days culture at 37° C., read-out: IC90 (concentration of compound required to reduce the HIV RNA level by 90%)) was under 0.05 µM.
